In the assay the test system is Plasmodium falciparum. The experiment in a line: GSK_TCMDC: Inhibition of Plasmodium falciparum 3D7 in whole erythrocytes, using parasite LDH activity as an index of growth. The class given is functional, organism-based. The conditions noted are these: Plasmodium falciparum, 3D7.

Each structure is given as a SMILES string.

Compound `O=C(/C=C/c1ccc(Cl)c(Cl)c1)N1CCC(CN2CCC(c3nc4ccccc4n3CCCO)CC2)CC1` returned an XC50 of 0.839 µM.
For `CN1CCN(c2ccnc3ccc(NC(=O)Cc4ccc(OCc5ccccc5)cc4)cc23)CC1`, the XC50 was 0.628 µM.
Regarding `CCN(CC)CCCNC(=O)/C(=C/C=C/c1cc2cc(Cl)c(Cl)cc2[nH]1)OC`, the XC50 stood at 1.16 µM.
For `O=C(NC1CCCCC1)N(Cc1cccc(-c2ccc(CNCc3ccc4c(c3)OCO4)cc2)c1)C1CCN(Cc2ccccc2)CC1`, the XC50 came to 0.788 µM.
The figure for `COC(=O)c1ccc(NC(=O)Nc2ccc(Cn3ncc(N4CCCNCC4)c(Cl)c3=O)cc2)cc1` is 0.605 µM; for `COc1ccc(Cl)cc1N1CCN(CCCNC(=O)c2ccc(-c3nc4cc(Cl)c(F)cc4[nH]3)cc2)CC1` it is 1.06 µM.
For `CC[C@H]1CN2CC[C@H]1C[C@H]2[C@H](O)c1cc(-c2ccc(Cl)c(Cl)c2)nc2ccc(OC)cc12`, the XC50 is 0.115 µM.
For `COc1cc(Cc2cnc(N)nc2N)cc(OCC(C)(C)C(=O)O)c1OC` the value was 1.11 µM.
As to `Cc1cc(OCc2ccccc2)c(OCc2ccccc2)cc1C(O)CN(C)Cc1ccccc1` (stereo unspecified), the XC50 worked out at 0.809 µM.
In the case of `CC(Cc1ccc([N+](=O)[O-])cc1)NCC(O)c1cccc(C(F)(F)F)c1` (stereo unspecified), the XC50 was 0.898 µM.
The compound `O=C(/C=C/c1ccc(Cl)c(Cl)c1)NCCCCCN1CCCC(CNC(=O)Nc2ccc(C(F)(F)F)cc2)C1` (stereo unspecified) had an XC50 of 0.668 µM.
`CC1(CCc2ccccc2)N=C(N)N(Cc2ccccc2)C(=O)C1c1ccc(Cl)c(Cl)c1` (stereo unspecified): the XC50 came out at 0.805 µM.
Compound `OCc1ccc(-c2cncc(Nc3cccc(Cl)c3)c2)cc1` displayed an XC50 of 0.0743 µM.
`CCC1(C)N=C(N)N=C(N)N1c1ccccc1` (stereo unspecified) came in with an XC50 of 0.792 µM.
Compound `O=C(NCCNc1nc(NCCNC(=O)Nc2ccccc2)c2ccc(=O)n(-c3c(F)cccc3F)c2n1)Nc1ccccc1` returned an XC50 of 0.17 µM.
Compound `Cc1cc(NCCC(=O)Nc2ccccc2)nc(NCc2ccccc2C)n1` came in with an XC50 of 0.657 µM.
With `CCOc1cc(C(=O)Nc2ccc(-c3nc4ccccc4[nH]3)cc2)cc(OCC)c1OCC`, the XC50 worked out at 0.234 µM.
For `Cc1cc2c(cc1C(F)(F)F)N(C(=O)Nc1cc(C(=O)NC3CCN(Cc4ccccc4)C3)cc(C(F)(F)F)c1)CC2` (stereo unspecified) the value was 0.339 µM.
The figure for `CCN(CC)/C(=N/C(=N)NCc1ccc(Cl)cc1)NCCCCCCN/C(=N\C(=N)NCc1ccc(Cl)cc1)N(CC)CC` is 0.231 µM; for `COCCCN=C(S)NN=C(C)c1ccccn1` it is 0.296 µM.
As to `COc1cc(Cc2cnc(N)nc2N)cc(OCCCS(=O)(=O)O)c1OC`, the XC50 turned out to be 1.17 µM.
Compound `C=C[C@]1(C)C[C@@H](OC(=O)NC(=O)CCCS(=O)(=O)c2nnc(C)s2)[C@]2(C)[C@H](C)CC[C@]3(CCC(=O)[C@H]32)[C@@H](C)[C@@H]1O` came in with an XC50 of 0.0315 µM.
Regarding `COc1ccccc1CNCC(O)c1cc(C(F)(F)F)ccc1C(F)(F)F` (stereo unspecified), the XC50 stood at 0.944 µM.
`Nc1ccncc1C(=O)NCCCCN1CCN(c2nsc3ccccc23)CC1` gave an XC50 of 0.803 µM.
Consider `Cc1[nH]c(C)c(-c2ccc(CCc3ccc(N)cc3)cc2)c(=O)c1Cl`, for which the XC50 was found to be 0.0985 µM.
Compound `Cc1cc(N(C)CCN(C)C)nc(Nc2ccc(Cl)cc2)n1` showed an XC50 of 0.968 µM.
For `CCN1CCC(N(Cc2ccc(-c3ccc(C(F)(F)F)cc3)o2)C(=O)Cn2c(CCc3cccc(F)c3F)nc(=O)c3ccccc32)CC1` the value was 1.14 µM.
Regarding `O=C(Cn1cnc2c(nnn2Cc2ccccc2F)c1=O)Nc1ccc2c(c1)OCCO2`, the XC50 amounted to 0.949 µM.
For `COc1ccc(NC(=O)c2ccc(NC(=O)c3ccc(Cl)cc3)cc2)cc1N1CCN(C)CC1` the value was 0.849 µM.
Take `O=S(=O)(ON=C1CCc2ccccc21)c1ccc(Cl)cc1`: the XC50 was found to be 1.31 µM.
Take `O=C(Cc1c[nH]cn1)Nc1cccc(-c2cccc(-c3nc4cc(C(F)(F)F)ccc4[nH]3)c2)c1`: the XC50 was found to be 0.225 µM.
Regarding `CCc1cc2c(cc1CC)CC(NC[C@@H](O)c1ccc(O)c3[nH]c(=O)ccc13)C2`, the XC50 was found to be 1.12 µM.
Regarding `CCCCCCCN1CC[C@@H](CCCc2ccnc3ccc(OCCCCN/C(N)=N/O)cc23)[C@@H](CC)C1`, the XC50 was determined as 0.952 µM.
With `Oc1ccc(CNCCCCCCNCCc2ccc(Cl)cc2)cc1O`, the XC50 turned out to be 0.989 µM.
The compound `CS(=O)(=O)c1ccc(CCNCc2ccc(-c3ccc(CNC4CCN(Cc5ccccc5)CC4)cc3)nc2)cc1` came in with an XC50 of 0.249 µM.
Compound `N#Cc1ccc(NC(=O)c2ccc(C(=O)NCCCCN3CCC(c4ccc5c(c4OCCOC4CCCCO4)CCCC5)CC3)cc2)cc1` (stereo unspecified) returned an XC50 of 0.58 µM.
In the case of `Cc1nc2nc(N)nc(N)c2c(C)c1Cc1ccc(C(N)=O)cc1`, the XC50 came to 0.53 µM.
`Cc1ccc(S(=O)(=O)c2nc(S(=O)(=O)c3ccccc3)sc2NCC2CCCO2)cc1` (stereo unspecified) yielded an XC50 of 1.02 µM.
The figure for `Cc1cccc2nc(-c3ccc(-c4ccc(NC(=O)Nc5cccc(C#N)c5)cc4)cc3)[nH]c12` is 0.114 µM; for `CCOc1cc(C=Cc2nc(O)c3ccccc3n2)cc(Cl)c1O` it is 1.18 µM; for `CC(=O)c1c(C)[nH]c(C(=O)Nc2ccc(-c3nc4ccc(C)cc4s3)cc2)c1C` it is 0.837 µM.
For `COc1ccc2nc3cc(Cl)ccc3c(NCCCCNc3c4ccc(Cl)cc4nc4ccc(OC)cc34)c2c1` the value was 0.16 µM.
`COc1c(C2=CCN(CCCCNC(=O)c3ccc(-c4ccc(C#N)cc4)cc3)CC2)ccc2c1CCCC2` showed an XC50 of 0.911 µM.
Consider `CN1CCN(c2cc(NC(=O)Nc3cccc(Cl)c3Cl)ccc2Cl)CC1`, for which the XC50 was 0.734 µM.
With `Cc1nc(C)c(-c2ccc(-c3ccc(F)cc3)cc2)c(O)c1Br`, the XC50 stood at 1.07 µM.
As for `Cn1cnc2c(SCc3ccc(OCc4ccccc4)cc3)ncnc21`, the XC50 came to 0.557 µM.
The compound `CCN(CC)C(=O)C1CCN(C(C(=O)N2CCN(CC(=O)N3CCCC3)CC2)c2cc3ccccc3o2)CC1` (stereo unspecified) gave an XC50 of 0.707 µM.
The figure for `COc1ccc2nccc([C@@H](O)CN3CCC(NCc4cc5cccc6c5n(c4=O)CCC6)CC3)c2c1` is 0.861 µM.
The compound `CC(C)CCN1CCC(Oc2ccc(NC(=O)c3cccs3)cc2Cl)C1` (stereo unspecified) displayed an XC50 of 1.1 µM.
`Cc1cc(NC(=O)Nc2ccc(N(C)C)cc2)c2cc(Cl)ccc2n1`: the XC50 came out at 0.857 µM.
As to `O=C(NCCCCN1CCC(O)(c2ccc(Cl)cc2)CC1)c1ccc(Br)cc1`, the XC50 turned out to be 1.25 µM.
In turn, `C=CCn1c(C)cc(C(=O)COc2ccc(S(=O)(=O)N3CCOCC3)cc2[N+](=O)[O-])c1C` had an XC50 of 1.11 µM.
The figure for `CCc1ccc(CN2CCC(CNC(=O)c3cc(-c4cccc(F)c4)cs3)C2)cc1` (stereo unspecified) is 1.36 µM; for `Cc1cc(-c2cccc(CNC3CCCC3)c2)ccc1S(=O)(=O)NCCN1CCCC1` it is 1.24 µM; for `C[C@@H](N)C#Cc1cc2c(Nc3ccc(OCc4cccc(F)c4)c(Cl)c3)ncnc2s1` it is 1.06 µM.
The figure for `O=C(NC1CCN(c2ccnc3cc(Cl)ccc23)C1)c1ccccc1F` (stereo unspecified) is 0.971 µM; for `CN1CCC(C(=O)Nc2cccc(-c3ccc(-c4nc5cc(C(F)(F)F)ccc5[nH]4)s3)c2)CC1` it is 0.724 µM; for `c1ccc(Oc2ccc(Nc3ccnc4cc(-c5cccc(CN6CCOCC6)c5)ccc34)cc2)cc1` it is 0.336 µM.
`Cc1nc2nc(N)nc(N)c2c(C)c1Cc1ccc(C#N)cc1` returned an XC50 of 0.542 µM.
With `COc1ccc(CNC2CCN(C)CC2)cc1-c1ccc(S(=O)(=O)NCc2ccccc2)c(F)c1`, the XC50 amounted to 0.8 µM.
The figure for `FC(F)(F)c1ccc2[nH]c(-c3ccc(-c4ccc(CNCC5CCCO5)cc4)cc3)nc2c1` (stereo unspecified) is 0.407 µM.

The values are drawn from ChEMBL document CHEMBL1157539, “Thousands of chemical starting points for antimalarial lead identification” (Nature, 2010).
